This note sets out measurements from US20240075004A1, “VERY-LONG-CHAIN POLYUNSATURATED FATTY ACIDS, ELOVANOID HYDROXYLATED DERIVATIVES, AND METHODS OF USE” (The Board of Supervisors of Louisiana State University and …, priority 2020, published 2024).

The test system of one data set is HNEpC. Kind of data set: HNEpC challenged with HDM: SPiDER β-galactosidase staining. Type of data set: cell-based, human. The note with it: 500 nM; HDM 30 μg/ml. How it is done: ELVN-34 protects HNEpC from the senescence-associated secretory phenotype (SASP response). Representative images of HNEpC stained with Hoechst 33342 and spider β-galactosidase—(Panel A) untreated (Control), (Panel B) challenged with HDM (30 μg/ml), and (Panel C) HNEpC treated with HDM and ELVN-34:6 Na (500 nM). (Panel D) Quantitative assessment of increased SASP response (measured by the spider β-galactosidase staining) upon HDM exposure (30 μg/ml). ELVN-34:6 Na (500 nM) treatment reduces the number of beta-gal positive HNEpC induced by HDM. […] (*p<0.05).
Cryopreserved human nasal epithelial cells HNEpC were purchased from PromoCell GmbH, Heidelberg, Germany. (Catalog #C-1260, Lot #436Z028).
The cells used for our experiments are primary nasal epithelial cells obtained from the nasal mucosa of a person.
Cells were received in passage (P1) and were sub-culture to passage (P3), which were used for all the experiments.
HNEpC were grown to 80% confluency in Promocell's Airway epithelial cell growth medium (Catalog #C-21060) which was supplemented with airway epithelial cell growth medium supplement pack (Catalog #C-39160) and Penicillin/Streptomycin.

Data set [1] concerns pro-inflammatory transcriptome and pro-homeostatic pathways in RPE single-cells. Kind of data set: UOS transcriptome in RPE single-cells. Format: cell-based. The note with it: 96 per sample. An excerpt:
Dots in box plots represent expression of the gene for a single RPEC (total of 96 per sample). P<0.001 (***), P<0.01 (**), One-way Anova, with Post-Hoc Tukey HSD test for multiple comparisons.

The subject of the next data set is human RPE cells. As to the kind of experiment: Oxidative-stress and Erastin induced cell death in human RPE cells. Type of data set: cell-based.
Another data set deals with RPE and PRC. As to the kind of experiment: Subretinal injection of OAβ in WT mice: fundus/OCT and ZO-1 whole flat mount of RPE. Format: in vivo, C57BL/6J WT mice. The note with it: OAβ-injected retina, 10 μM subretinal, 7 days; non-injected retina 105 μm. How it is done:
All animal experiments were performed according to ARVO Statement for the Use of Animals in Ophthalmic and Vision Research, and the protocol was approved by LSU Health New Orleans' Institutional Animal Care and Use Committee (IACUC). 6-month-old 5×FAD mice (stock number: 34848-JAX, The Jackson Laboratory, Bar Harbor, ME, USA), co-overexpress FAD mutant forms of human amyloid precursor protein (the Swedish mutation: K670N, M671L; the Florida mutation: I716V; and the London mutation: V7171) and presenilin 1 (PS1, encoded by Psen1: M146L, L286V) transgenes under transcriptional control of the neuron-specific mouse Thy1 promoter. 5×FAD mice were hemizygotes with respect to the transgenes and non-transgenic WT littermates. Genotyping was performed by PCR of tail DNA. All analyses were carried out blind with respect to the mice genotype. For the subretinal injection, 6-month-old C57BL/6J mice were anesthetized by an intraperitoneal injection of ketamine/xylazine, pupils dilated with 1.0% tropicamide (Akorn, IL, USA); and 0.5% Proparacaine Hydrochloride (Akorn) was applied for topical anesthesia. Eyes were punctured with a 30-gauge needle between the corneoscleral junction and the ora serrata into the vitreous cavity without disturbing the lens. Compounds were delivered to the subretinal region using a 33-gauge blunt needle attached to a 5 μl Hamilton syringe (Hamilton Company, Reno, NV, USA) under a dissecting microscope. Non-injected mice were used as negative control while the PBS injected mice were used for sham. The injection volume was 2 μl containing PBS, 10 μM of OAβ, 10 μM of OAβ+200 ng ELV-N-32, 200 ng ELV-N-32 alone, 10 μM of OAβ+200 ng ELV-N-34 or 200 ng ELV-N-34 alone (n=12/group). All groups received topical drops: PBS only or ELV-N-32 (200 nM) or ELV-N-34 (200 nM), twice a day for 3 or 7 days.
For the whole mount RPE staining, eyeballs were enucleated and pre-fixed in 4% PFA for 15 min. Then the eye cup containing RPE sheet were fixed in 4% PFA for 30 min, washed in PBS 3× following the blocking step for 1 h at room temperature. The immunostaining was performed by incubating primary antibody (ZO-1) for 48 h at 4° C. Then the eye cups were washed 3× with PBS and incubated with the secondary antibody for 12 h at 4° C. The primary human RPE cells as well as mouse eye cups were embedded in ProLong™ Gold Antifade Mounting medium (Thermo Fisher Scientific) between two glass coverslips. Pictures were taken with Olympus FV1200 microscope (Olympus, Japan). Images were analyzed by software ImageJ (rsb.info.nih.gov/ij/).
7 days post-injection, mice were anesthetized with ip ketamine/xylazine, pupil dilated by topical 1.0% tropicamide and placed in a custom-built holder for OCT imaging (body temperature maintained at 38° C. with a heat pad). Retinas were imaged along the horizontal meridian through the optic nerve head using a Heidelberg Spectralis HRA OCT system (Heidelberg Engineering, Heidelberg, Germany). Axial resolution is […]. The raw OCT B-scans cross-sectional images were exported with the scale in m and opened in ImageJ (http//imagej.nih.gov/ij). The PRC layer thickness was defined as the width from the tip of the outer nuclear layer, right after the outer plexiform layer, to the outer segments of PRC. Three measurements were made on the same scan and averaged. Mean and standard error of the mean (SEM) were calculated (n=4/group). Students' T-test was used to calculate statistical significance and a P-value less than 0.05 was considered significant.

Turning to `CC/C=C\C[C@H](O)\C=C/C=C/C=C/[C@H](O)C/C=C\C/C=C\CCCCCCCCCCCCCCC(=O)[O-].[Na+]` [ELVN-34:6 Na, sodium (16Z,19Z,22R,23E,25E,27Z,29S,31Z)-22,29-dihydroxytetratriaconta-16,19,23,25,27,31-hexaenoate], the “number of beta-gal positive HNEpC (SASP response, spider β-galactosidase staining)” value with HNEpC is given as “reduces”.

Consider `CC/C=C\C[C@H](O)\C=C/C=C/C=C/[C@H](O)C/C=C\C/C=C\CCC(=O)O` [NPD1, 10R,17S-dihydroxy-docosa-4Z,7Z,11E,13E,15Z,19Z-hexaenoic acid, reference compound], for which, in data set [1], the “UOS up-regulation of pro-inflammatory transcriptome and down-regulation of pro-homeostatic pathways” value is “suppress these changes”. The “oxidative-stress and Erastin induced cell deaths” value with human RPE cells is listed as “counteracted”.

Turning to “OAβ: Aβ (1-42) oligomerized for 24 h at 4° C.; cytotoxic challenge injected subretinally or added to cells [reference compound]”, the “PRC layer thickness (OCT)” value in the data set on RPE and PRC came to 35 μm.
